In US20190152957A1, “PYRIDIN-3-YL ACETIC ACID DERIVATIVES AS INHIBITORS OF HUMAN IMMUNODEFICIENCY VIRUS REPLICATION” (ViiV HEALTHCARE UK (NO.5) LIMITED, priority 2016, published 2019):
Where two headings read alike, the source gives them in different places.

Tested on: recombinant NL-RLuc virus (HIV NL4-3 with Renilla Luciferase gene) in MT-2 cells
Experiment: Inhibition of HIV replication (NL-RLuc virus, luciferase readout in MT-2 cells)
Format: cell-based
Settings: MT2, 120 h
From the text: Inhibition of HIV Replication:
A recombinant NL-RLuc proviral clone was constructed in which a section of the nef gene from NL4-3 was replaced with the Renilla Luciferase gene. This virus is fully infectious and can undergo multiple cycles of replication in cell culture. In addition, the luciferous reporter provides a simple and easy method for quantitating the extent of virus growth and consequently, the antiviral activity of test compounds. The plasmid pNLRLuc contains the proviral NL-Rluc DNA cloned into pUC18 at the PvuII site. The NL-RLuc virus was prepared by transfection of 293T cells with the plasmid pNLRLuc. Transfections were performed using the LipofectAMINE PLUS kit from Invitrogen (Carlsbad, Calif.) according to the manufacturer and the virus generated was titered in MT-2 cells. For susceptibility analyses, the titrated virus was used to infect MT-2 cells in the presence of compound, and after 5 days of incubation, cells were processed and quantitated for virus growth by the amount of expressed luciferase. Assay media was RPMI 1640 supplemented with 10% heat inactivated fetal bovine serum (FBS), 100 units/ml penicillin G/100 units/ml streptomycin, 10 mM HEPES buffer pH 7.55 and 2 mM L-glutamine. The results from at least 2 experiments were used to calculate the EC50 values. Luciferase was quantitated using the Dual Luciferase kit from Promega (Madison, Wis.). Susceptibility of viruses to compounds was determined by incubation in the presence of serial dilutions of the compound. The 50% effective concentration (EC50) was calculated by using the exponential form of the median effect equation where (Fa)=1/[1+(ED50/drug conc.)^m](Johnson V A, Byington R T. Infectivity Assay. In Techniques in HIV Research. ed. Aldovini A, Walker BD. 71-76. New York: Stockton Press. 1990). Activity equal to A refers to a compound having an EC50≤100 nM, while B and C denote compounds having an EC50 between 100 nM and 1 uM (B) or >1 uM (C).

SMILES: Cc1nc(C)c([C@H](OC(C)(C)C)C(=O)O)c(N2CCC(C)(C)CC2)c1-c1ccc2c(c1)CCN(Cc1cc(-c3ccccc3)on1)C2 [Compound 25, (S)-2-(tert-butoxy)-2-(4-(4,4-dimethylpiperidin-1-yl)-2,6-dimethyl-5-(2-((5-phenylisoxazol-3-yl)methyl)-1,2,3,4-tetrahydroisoquinolin-6-yl)pyridin-3-yl)acetic acid]
- EC50 (read-out: Activity): < 0.1 µM
- EC50 (read-out: EC50 μM): 0.012 µM

SMILES: Cc1noc(C)c1CN1CCc2cc(-c3c(C)nc(C)c([C@H](OC(C)(C)C)C(=O)O)c3N3CCC(C)(C)CC3)ccc2C1 [Compound 23, (S)-2-(tert-butoxy)-2-(5-(2-((3,5-dimethylisoxazol-4-yl)methyl)-1,2,3,4-tetrahydroisoquinolin-6-yl)-4-(4,4-dimethylpiperidin-1-yl)-2,6-dimethylpyridin-3-yl)acetic acid]
- EC50 (read-out: Activity): < 0.1 µM

SMILES: Cc1nc(C)c([C@H](OC(C)(C)C)C(=O)O)c(N2CCC(C)(C)CC2)c1-c1ccc2c(c1)CCN(Cc1c[nH]cn1)C2 [Compound 40, (S)-2-(5-(2-((1H-imidazol-4-yl)methyl)-1,2,3,4-tetrahydroisoquinolin-6-yl)-4-(4,4-dimethylpiperidin-1-yl)-2,6-dimethylpyridin-3-yl)-2-(tert-butoxy)acetic acid]
- EC50 (read-out: Activity): > 1 µM

SMILES: Cc1nc(C)c([C@H](OC(C)(C)C)C(=O)O)c(N2CCC(C)(C)CC2)c1-c1ccc2c(c1)CCN(Cc1cnc(-c3ccccc3)[nH]1)C2 [Compound 20, (S)-2-(tert-butoxy)-2-(4-(4,4-dimethylpiperidin-1-yl)-2,6-dimethyl-5-(2-((2-phenyl-1H-imidazol-5-yl)methyl)-1,2,3,4-tetrahydroisoquinolin-6-yl)pyridin-3-yl)acetic acid]
- EC50 (read-out: Activity): < 0.1 µM

SMILES: COc1cc(CN2CCc3cc(-c4c(C)nc(C)c([C@H](OC(C)(C)C)C(=O)O)c4N4CCC(C)(C)CC4)ccc3C2)ccn1 [Compound 31, (S)-2-(tert-butoxy)-2-(4-(4,4-dimethylpiperidin-1-yl)-5-(2-((2-methoxypyridin-4-yl)methyl)-1,2,3,4-tetrahydroisoquinolin-6-yl)-2,6-dimethylpyridin-3-yl)acetic acid]
- EC50 (read-out: Activity): < 0.1 µM

SMILES: Cc1nc(C)c([C@H](OC(C)(C)C)C(=O)O)c(N2CCC(C)(C)CC2)c1-c1ccc2c(c1)CCN(Cc1nc(-c3ccccc3)oc1C)C2 [Compound 14, (S)-2-(tert-butoxy)-2-(4-(4,4-dimethylpiperidin-1-yl)-2,6-dimethyl-5-(2-((5-methyl-2-phenyloxazol-4-yl)methyl)-1,2,3,4-tetrahydroisoquinolin-6-yl)pyridin-3-yl)acetic acid]
- EC50 (read-out: Activity): < 0.1 µM
- EC50 (read-out: EC50 μM): 0.016 µM

SMILES: Cc1nc(C)c([C@H](OC(C)(C)C)C(=O)O)c(N2CCC(C)(C)CC2)c1-c1ccc2c(c1)CCN(Cc1ccc(Cl)nc1Cl)C2 [Compound 32, (S)-2-(tert-butoxy)-2-(5-(2-((2,6-dichloropyridin-3-yl)methyl)-1,2,3,4-tetrahydroisoquinolin-6-yl)-4-(4,4-dimethylpiperidin-1-yl)-2,6-dimethylpyridin-3-yl)acetic acid]
- EC50 (read-out: Activity): < 0.1 µM

SMILES: Cc1nc(C)c([C@H](OC(C)(C)C)C(=O)O)c(N2CCC(C)(C)CC2)c1-c1ccc2c(c1)CCN(Cc1ccncc1)C2 [Compound 12, (S)-2-(tert-butoxy)-2-(4-(4,4-dimethylpiperidin-1-yl)-2,6-dimethyl-5-(2-(pyridin-4-ylmethyl)-1,2,3,4-tetrahydroisoquinolin-6-yl)pyridin-3-yl)acetic acid]
- EC50 (read-out: Activity): < 0.1 µM

SMILES: Cc1nc(C)c([C@H](OC(C)(C)C)C(=O)O)c(N2CCC(C)(C)CC2)c1-c1ccc2c(c1)CCN(Cc1cscn1)C2 [Compound 10, (S)-2-(tert-butoxy)-2-(4-(4,4-dimethylpiperidin-1-yl)-2,6-dimethyl-5-(2-(thiazol-4-ylmethyl)-1,2,3,4-tetrahydroisoquinolin-6-yl)pyridin-3-yl)acetic acid]
- EC50 (read-out: Activity): < 0.1 µM

SMILES: Cc1nc(CN2CCc3cc(-c4c(C)nc(C)c([C@H](OC(C)(C)C)C(=O)O)c4N4CCC(C)(C)CC4)ccc3C2)c[nH]1 [Compound 43, (S)-2-(tert-butoxy)-2-(4-(4,4-dimethylpiperidin-1-yl)-2,6-dimethyl-5-(2-((2-methyl-1H-imidazol-4-yl)methyl)-1,2,3,4-tetrahydroisoquinolin-6-yl)pyridin-3-yl)acetic acid]
- EC50 (read-out: Activity): < 0.1 µM

SMILES: COc1ncc(CN2CCc3cc(-c4c(C)nc(C)c([C@H](OC(C)(C)C)C(=O)O)c4N4CCC(C)(C)CC4)ccc3C2)c(OC)n1 [Compound 48, (S)-2-(tert-butoxy)-2-(5-(2-((2,4-dimethoxypyrimidin-5-yl)methyl)-1,2,3,4-tetrahydroisoquinolin-6-yl)-4-(4,4-dimethylpiperidin-1-yl)-2,6-dimethylpyridin-3-yl)acetic acid]
- EC50 (read-out: Activity): < 0.1 µM

SMILES: Cc1cc(CN2CCc3cc(-c4c(C)nc(C)c([C@H](OC(C)(C)C)C(=O)O)c4N4CCC(C)(C)CC4)ccc3C2)no1 [Compound 13, (S)-2-(tert-butoxy)-2-(4-(4,4-dimethylpiperidin-1-yl)-2,6-dimethyl-5-(2-((5-methylisoxazol-3-yl)methyl)-1,2,3,4-tetrahydroisoquinolin-6-yl)pyridin-3-yl)acetic acid]
- EC50 (read-out: Activity): < 0.1 µM

SMILES: Cc1cccc(-n2cc(CN3CCc4cc(-c5c(C)nc(C)c([C@H](OC(C)(C)C)C(=O)O)c5N5CCC(C)(C)CC5)ccc4C3)cn2)c1 [Compound 41, (S)-2-(tert-butoxy)-2-(4-(4,4-dimethylpiperidin-1-yl)-2,6-dimethyl-5-(2-((1-(m-tolyl)-1H-pyrazol-4-yl)methyl)-1,2,3,4-tetrahydroisoquinolin-6-yl)pyridin-3-yl)acetic acid]
- EC50 (read-out: Activity): < 0.1 µM

SMILES: Cc1nc(C)c([C@H](OC(C)(C)C)C(=O)O)c(N2CCC(C)(C)CC2)c1-c1ccc2c(c1)CCN(Cc1[nH]nnc1[Si](C)(C)C)C2 [Compound 51, (S)-2-(tert-butoxy)-2-(4-(4,4-dimethylpiperidin-1-yl)-2,6-dimethyl-5-(2-((4-(trimethylsilyl)-1H-1,2,3-triazol-5-yl)methyl)-1,2,3,4-tetrahydroisoquinolin-6-yl)pyridin-3-yl)acetic acid]
- EC50 (read-out: Activity): < 0.1 µM

SMILES: Cc1nc(C)c([C@H](OC(C)(C)C)C(=O)O)c(N2CCC(C)(C)CC2)c1-c1ccc2c(c1)CCN(Cc1nccs1)C2 [Compound 9, (S)-2-(tert-butoxy)-2-(4-(4,4-dimethylpiperidin-1-yl)-2,6-dimethyl-5-(2-(thiazol-2-ylmethyl)-1,2,3,4-tetrahydroisoquinolin-6-yl)pyridin-3-yl)acetic acid]
- EC50 (read-out: Activity): < 0.1 µM

SMILES: Cc1nc(C)c([C@H](OC(C)(C)C)C(=O)O)c(N2CCC(C)(C)CC2)c1-c1ccc2c(c1)CCN(CC1CCCCC1)C2 [Compound 5, (S)-2-(tert-butoxy)-2-(5-(2-(cyclohexylmethyl)-1,2,3,4-tetrahydroisoquinolin-6-yl)-4-(4,4-dimethylpiperidin-1-yl)-2,6-dimethylpyridin-3-yl)acetic acid]
- EC50 (read-out: Activity): < 0.1 µM

SMILES: Cc1nc(C)c([C@H](OC(C)(C)C)C(=O)O)c(N2CCC(C)(C)CC2)c1-c1ccc2c(c1)CCN(Cc1cccnc1OC(C)C)C2 [Compound 45, (S)-2-(tert-butoxy)-2-(4-(4,4-dimethylpiperidin-1-yl)-5-(2-((2-isopropoxypyridin-3-yl)methyl)-1,2,3,4-tetrahydroisoquinolin-6-yl)-2,6-dimethylpyridin-3-yl)acetic acid]
- EC50 (read-out: Activity): < 0.1 µM
